2 compounds from ChEMBL document CHEMBL5370598, “[3H]UR-JG102-A Radiolabeled Cyclic Peptide with High Affinity and Excellent Selectivity for the Neuropeptide Y Y4 Receptor” (J Med Chem, 2023) can be followed below.

The target in data set [1] is T1, Neuropeptide Y receptor type 4 (Homo sapiens, UniProt P50391). The data set can be described thus: Displacement of [3H]UR-KK200 from human Y4R expressed in CHO cells co-expressing Gqi5-mtAEQ. The class given is cell-based. In general terms: In a radioligand displacement assay an active substance lowers the binding of a labelled ligand.
For data set [2], the species on record is Homo sapiens. The data set can be described thus: Selectivity ratio of pKi for human Y5R to pKi for human Y4R.
In data set [3] the target is T1, Neuropeptide Y receptor type 4. The data set can be described thus: Binding affinity to human Y4R expressed in CHO cells co-expressing Gqi5-mtAEQ assessed as Kon preincubated for 20 mins under DPBS condition. The class given is cell-based. The conditions noted are these: filed as agonist, tested as the 3H-labelled form.
For data set [4] the target is unchanged. The data set can be described thus: Agonist activity at human Y4R expressed in CHO cells co-expressing Gqi5-mtAEQ by calcium2+ aequorin assay. The data set is classed as functional, cell-based.
Data set [5] has as its target T2, Neuropeptide Y receptor type 5 (Homo sapiens, UniProt Q15761).
T2 sequence (Q15761 whole entry): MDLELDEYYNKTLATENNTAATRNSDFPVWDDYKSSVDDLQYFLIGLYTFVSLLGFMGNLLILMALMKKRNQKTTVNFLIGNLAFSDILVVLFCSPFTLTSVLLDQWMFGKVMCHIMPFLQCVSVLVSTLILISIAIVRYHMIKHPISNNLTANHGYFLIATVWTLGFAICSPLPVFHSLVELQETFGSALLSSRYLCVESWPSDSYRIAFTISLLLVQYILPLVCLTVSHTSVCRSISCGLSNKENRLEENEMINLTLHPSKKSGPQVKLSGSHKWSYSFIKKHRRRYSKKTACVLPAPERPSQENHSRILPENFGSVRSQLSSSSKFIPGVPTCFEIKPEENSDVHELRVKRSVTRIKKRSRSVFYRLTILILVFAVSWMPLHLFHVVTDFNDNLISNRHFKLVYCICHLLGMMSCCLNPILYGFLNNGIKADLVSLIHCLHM
Description: Displacement of [3H]propionyl-pNPY from human Y5R expressed in HEC-1B cells. The data set is classed as cell-based, HEC-1B cell line.

In data set [6] the target is T1, Neuropeptide Y receptor type 4. The data set can be described thus: Displacement of [3H]-(9S,12S,15S,19R,E)-4-amino-N-((S)-1-(((S)-1-(((S)-1-amino-3-(4-hydroxyphenyl)-1-oxopropan-2-yl)amino)-5-guanidino-1-oxopentan-2-yl)amino)-4-methyl-1-oxopentan-2-yl)-15-(3-guanidinopropyl)-12-(4-hydroxybenzyl)-2,11,14,17,20-pentaoxo-19-(4-(propanamido-2,3-t2)butanamido)-1,3,5,10,13,16,21-heptaazacyclopentacos-3-ene-9-carboxamide from human Y4R expressed in CHO cells coexpressing Gqi5-mtAEQ under isotonic sodium containing buffer condition. The data set is classed as cell-based.

Data set [7] shares this target. The data set can be described thus: Agonist activity at human Y4R expressed in CHO cells co-expressing Gqi5-mtAEQ by calcium2+ aequorin assay relative to control. The class given is functional, cell-based. To be noted: filed as agonist.
Data set [8] has the same target. Description: Agonist activity at human Y4R expressed in HEK293T cells incubated for 60 mins by cAMP CAMYEN assay relative to control. The class given is functional, cell-based. To be noted: filed as agonist.
Data set [9] shares this target. The data set can be described thus: Binding affinity to human Y4R expressed in CHO cells co-expressing Gqi5-mtAEQ assessed as Kon under sodium free buffer condition. To be noted: filed as agonist, tested as the 3H-labelled form. The data set is classed as cell-based.
For data set [10] the target is unchanged. The data set can be described thus: Binding affinity to human Y4R expressed in CHO cells co-expressing Gqi5-mtAEQ assessed as Koff under sodium free buffer condition. The class given is cell-based. The conditions noted are these: filed as agonist, tested as the 3H-labelled form.
The target is the same in data set [11]. The data set can be described thus: Agonist activity at human Y4R expressed in HEK293T cells incubated for 60 mins by cAMP CAMYEN assay. The class given is functional, cell-based.
In data set [12] the target is T3, Neuropeptide Y receptor type 2 (Homo sapiens, UniProt P49146).
T3 sequence (P49146 whole entry): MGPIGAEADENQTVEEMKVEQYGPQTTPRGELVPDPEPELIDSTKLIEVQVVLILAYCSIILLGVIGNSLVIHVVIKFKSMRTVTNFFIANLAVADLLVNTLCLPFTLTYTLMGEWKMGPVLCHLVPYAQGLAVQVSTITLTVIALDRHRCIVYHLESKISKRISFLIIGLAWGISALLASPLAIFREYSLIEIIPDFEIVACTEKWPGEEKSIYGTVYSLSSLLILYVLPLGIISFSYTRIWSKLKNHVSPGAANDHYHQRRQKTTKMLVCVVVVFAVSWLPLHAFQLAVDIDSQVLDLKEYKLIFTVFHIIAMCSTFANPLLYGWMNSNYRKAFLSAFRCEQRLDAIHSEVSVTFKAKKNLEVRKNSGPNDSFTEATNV
The data set can be described thus: Displacement of [3H]propionyl-pNPY from human Y2R expressed in CHO cells. The data set is classed as cell-based.

The target of data set [13] is T1, Neuropeptide Y receptor type 4. The data set can be described thus: Agonist activity at human Y4R expressed in HEK293T cells by miniGsi assay. The class given is functional, cell-based.
For data set [14] the target is unchanged. The data set can be described thus: Agonist activity at human Y4R expressed in HEK293T cells by miniGsi assay relative to control. The data set is classed as functional, cell-based. To be noted: filed as agonist.
The species entered for data set [15] is Homo sapiens. Description: Selectivity ratio of pKi for human Y1R to pKi for human Y4R.
Data set [16] deals with T1, Neuropeptide Y receptor type 4. Description: Binding affinity to human Y4R expressed in CHO cells co-expressing Gqi5-mtAEQ assessed as observed association rate constant preincubated for 20 mins under DPBS condition. The data set is classed as cell-based. The conditions noted are these: filed as agonist, tested as the 3H-labelled form.
A short description of data set [17]: Chemical stability in PBS buffer at pH 7.4 after 48 hrs by RP-HPLC analysis. The conditions noted are these: pH 7.4, 48 h. The data set is classed as physicochemical.
Data set [18] concerns the target T1, Neuropeptide Y receptor type 4. The data set can be described thus: Binding affinity to human Y4R expressed in CHO cells co-expressing Gqi5-mtAEQ assessed as Kon preincubated for 2 hrs under DPBS condition. The conditions noted are these: filed as agonist, tested as the 3H-labelled form. The data set is classed as cell-based.
Data set [19] has the same target. Description: Binding affinity to human Y4R expressed in CHO cells co-expressing Gqi5-mtAEQ assessed as observed association rate constant under sodium free buffer condition. To be noted: filed as agonist, tested as the 3H-labelled form. The data set is classed as cell-based.
Data set [20] is filed under the species Homo sapiens. The data set can be described thus: Selectivity ratio of pKi for human Y2R to pKi for human Y4R.
Data set [21] concerns the target T1, Neuropeptide Y receptor type 4. Description: Displacement of [3H]-(9S,12S,15S,19R,E)-4-amino-N-((S)-1-(((S)-1-(((S)-1-amino-3-(4-hydroxyphenyl)-1-oxopropan-2-yl)amino)-5-guanidino-1-oxopentan-2-yl)amino)-4-methyl-1-oxopentan-2-yl)-15-(3-guanidinopropyl)-12-(4-hydroxybenzyl)-2,11,14,17,20-pentaoxo-19-(4-(propanamido-2,3-t2)butanamido)-1,3,5,10,13,16,21-heptaazacyclopentacos-3-ene-9-carboxamide from human Y4R expressed in CHO cells coexpressing Gqi5-mtAEQ under hypotonic sodium free buffer condition. The class given is cell-based.

For data set [22] the target is unchanged. Description: Binding affinity to human Y4R expressed in CHO cells co-expressing Gqi5-mtAEQ assessed as Koff preincubated for 2 hrs under DPBS condition. The data set is classed as cell-based. The conditions noted are these: filed as agonist, tested as the 3H-labelled form.
Data set [23] has the same target. Description: Binding affinity to human Y4R expressed in CHO cells co-expressing Gqi5-mtAEQ assessed as Koff preincubated for 20 mins under DPBS condition. The class given is cell-based. To be noted: filed as agonist, tested as the 3H-labelled form.
For data set [24], the target named is T4, Neuropeptide Y receptor type 1 (Homo sapiens, UniProt P25929).
T4 sequence (P25929 whole entry): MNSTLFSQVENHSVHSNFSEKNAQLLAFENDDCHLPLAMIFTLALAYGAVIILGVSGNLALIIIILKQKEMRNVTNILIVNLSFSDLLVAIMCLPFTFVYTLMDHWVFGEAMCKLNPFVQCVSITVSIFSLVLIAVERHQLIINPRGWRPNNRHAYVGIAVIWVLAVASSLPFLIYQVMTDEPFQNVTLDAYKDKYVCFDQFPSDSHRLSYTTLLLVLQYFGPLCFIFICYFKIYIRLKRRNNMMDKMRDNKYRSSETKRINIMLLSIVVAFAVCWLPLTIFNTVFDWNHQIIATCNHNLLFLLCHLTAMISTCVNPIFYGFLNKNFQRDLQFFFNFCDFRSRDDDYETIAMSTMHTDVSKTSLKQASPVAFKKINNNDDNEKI
Description: Displacement of [3H]UR-MK299 from human Y1R expressed in SK-N-MC cells. The data set is classed as cell-based.

T1 sequence (P50391 whole entry): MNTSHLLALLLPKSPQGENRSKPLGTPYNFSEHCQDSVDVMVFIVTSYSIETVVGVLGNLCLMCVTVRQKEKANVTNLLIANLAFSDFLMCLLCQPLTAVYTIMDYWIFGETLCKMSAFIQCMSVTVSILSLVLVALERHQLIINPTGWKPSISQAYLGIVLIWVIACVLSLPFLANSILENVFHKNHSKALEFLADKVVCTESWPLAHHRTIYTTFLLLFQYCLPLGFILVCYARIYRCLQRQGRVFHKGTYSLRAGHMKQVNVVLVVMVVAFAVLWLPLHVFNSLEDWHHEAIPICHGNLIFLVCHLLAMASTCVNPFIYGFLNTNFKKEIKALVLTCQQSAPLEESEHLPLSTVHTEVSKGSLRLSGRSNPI

Turning to `CCC(=O)NCCCC(=O)N[C@@H]1CC(=O)N[C@@H](CCCNC(=N)N)C(=O)N[C@@H](Cc2ccc(O)cc2)C(=O)N[C@H](C(=O)N[C@@H](CC(C)C)C(=O)N[C@@H](CCCNC(=N)N)C(=O)N[C@@H](Cc2ccc(O)cc2)C(N)=O)CCCN/C(N)=N/C(=O)NCCCCNC1=O.O=C(O)C(F)(F)F.O=C(O)C(F)(F)F.O=C(O)C(F)(F)F`, the Ki in [1] (read-out: Ki) was 0.036 nM; in [1] (read-out: pKi (converted)), 0.0316 nM; in data set [5] (hec-1b cell line, read-out: Ki), above 1000 nM; in data set [5] (read-out: pKi (converted)), above 1000 nM; in [6] (read-out: Ki), 0.088 nM; in data set [6] (read-out: pKi (converted)), 0.0832 nM. Moreover, the Ki in [12] (read-out: Ki) is above 3000 nM; in [12] (read-out: pKi (converted)), above 3160 nM; in data set [21] (read-out: Ki) it was 0.01 nM; in data set [21] (read-out: pKi (converted)), 0.00891 nM; in data set [24] (read-out: pKi (converted)), above 1000 nM; in data set [24] (sk-n-mc, read-out: Ki), above 1000 nM. The Ratio pKi in the data set filed under Homo sapiens [2], in the data set listed under Homo sapiens [2] (tested as the 3H-labelled form), in the data set filed under Homo sapiens [15], in the data set filed under Homo sapiens [15] (tested as the 3H-labelled form), in the data set filed under Homo sapiens [20] and in the data set filed under Homo sapiens [20] (tested as the 3H-labelled form) was above 27000 throughout. For the same compound, the K is 1.4e+08 M⁻¹ s⁻¹ in data set [3]; 6.83e+07 M⁻¹ s⁻¹ in data set [9]; 0.009 min⁻¹ in [10]; 0.54 min⁻¹ in data set [16]; 1.17e+07 M⁻¹ s⁻¹ in [18]; 0.071 min⁻¹ in [19]. Besides, the results for the K in data set [22] and in data set [23] were 0.059 min⁻¹ and 0.12 min⁻¹, respectively. Also, the EC50 in data set [4] (read-out: EC50) is 5.4 nM; in data set [4] (read-out: pEC50 (converted)), 5.13 nM; in [11] (read-out: EC50), 0.17 nM; in [11] (read-out: pEC50 (converted)), 0.126 nM; in [13], 5.1 nM. In addition, the Emax is 65% in data set [7], 83% in data set [8] and 60% in [14]. In addition, in data set [17], the Stability result is listed as “Stable”.
For `CC(C)C[C@H](NC(=O)[C@@H]1CCCNC(=N)NC(=O)NCCCCNC(=O)CCC(=O)N[C@@H](CCCNC(=N)N)C(=O)N[C@@H](Cc2ccc(O)cc2)C(=O)N1)C(=O)N[C@@H](CCCNC(=N)N)C(=O)N[C@@H](Cc1ccc(O)cc1)C(N)=O`, the Ki in data set [6] (read-out: Ki) was 0.076 nM; in [6] (read-out: pKi (converted)) it was 0.0741 nM; in data set [21] (read-out: Ki), 0.011 nM; in data set [21] (read-out: pKi (converted)), 0.00912 nM. The Emax in [7] turned out to be 100%; in data set [8], 113%. In addition, the figures for the EC50 in [11] (read-out: EC50) and in [11] (read-out: pEC50 (converted)) were 0.17 nM and 0.162 nM, respectively.

As usually defined, the Emax is the maximal effect, on the per cent scale that the assay sets.
